The text below walks through data of PubChem BioAssay AID2060501 (Molecular Pharmacology Branch, DTP, NCI, 2025).
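Note: spheroids exposed to compounds for 7 days before readout; percent of vehicle DMSO control viability with 100% = untreated-like growth.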

One test has as its system 282377-053-R-J1-PDC complex spheroids, viability. Kind of test: Anticancer human tumor 282377-053-R-J1-PDC patient-derived colon adenocarcinoma cell line growth inhibition [GQUAD]. Conditions: second compound 10 µM; first compound 0.0316 µM; stronger effect = lower value. Put shortly:
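Tumor cells were grown as complex spheroids with HUVEC endothelial cells and mesenchymal stem cells as stroma. G-quadruplex stabilizers were combined with targeted agents over half-log dilutions from near the clinical Cmax, or from 10 microM.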
With `CC1COCCN1c1cc(C2(S(C)(=N)=O)CC2)nc(-c2ccnc3[nH]ccc23)n1` (configuration not stated) + Cc1[nH]c2ccc(F)cc2c1-c1nc2c3cccnc3c3ncccc3c2[nH]1, the viability, T/C is 41.6%.

For `COc1ccc([C@@H](O)c2cc(-c3ncnc4cc(N5CCOCC5)ccc34)c(F)cc2Cl)nn1` + Cc1[nH]c2ccc(F)cc2c1-c1nc2c3cccnc3c3ncccc3c2[nH]1, the viability, T/C was 44.8%.

The test is the same for the next values; noted with them: second compound 10 µM; first compound 0.1 µM; stronger effect = lower value.
With `C=CCn1c(=O)c2cnc(Nc3ccc(N4CCN(C)CC4)cc3)nc2n1-c1cccc(C(C)(C)O)n1` + CN(C)c1ccc(Nc2c3ccc(NC(=O)CCN4CCCC4)cc3nc3cc(NC(=O)CCN4CCCC4)ccc23)cc1, the viability, T/C was 78.3%.

For `CC(C)(O)C1CCC(Nc2ccc3ncc(-c4cccc(C(F)(F)F)c4)n3n2)CC1` (configuration not stated) + CN(C)c1ccc(Nc2c3ccc(NC(=O)CCN4CCCC4)cc3nc3cc(NC(=O)CCN4CCCC4)ccc23)cc1, the viability, T/C is 95.5%.

As to `COc1ncnc(C2CC2)c1-c1ncc2cnn(Cc3ccc(-c4nc(C(F)(F)F)cn4C(C)C)cc3)c2n1` + CN(C)c1ccc(Nc2c3ccc(NC(=O)CCN4CCCC4)cc3nc3cc(NC(=O)CCN4CCCC4)ccc23)cc1, the viability, T/C is 66.8%.

For `CC1COCCN1c1cc(C2(S(C)(=N)=O)CC2)nc(-c2ccnc3[nH]ccc23)n1` (configuration not stated) + Cc1[nH]c2ccc(F)cc2c1-c1nc2c3cccnc3c3ncccc3c2[nH]1, the viability, T/C is 41%.

Take `COc1ccc([C@@H](O)c2cc(-c3ncnc4cc(N5CCOCC5)ccc34)c(F)cc2Cl)nn1` + Cc1[nH]c2ccc(F)cc2c1-c1nc2c3cccnc3c3ncccc3c2[nH]1: the viability, T/C is 47.4%.

Still in this test, the particulars now being: second compound 10 µM; first compound 0.316 µM; stronger effect = lower value.
As to `C=CCn1c(=O)c2cnc(Nc3ccc(N4CCN(C)CC4)cc3)nc2n1-c1cccc(C(C)(C)O)n1` + CN(C)c1ccc(Nc2c3ccc(NC(=O)CCN4CCCC4)cc3nc3cc(NC(=O)CCN4CCCC4)ccc23)cc1, the viability, T/C is 104%.

Turning to `CC(C)(O)C1CCC(Nc2ccc3ncc(-c4cccc(C(F)(F)F)c4)n3n2)CC1` (configuration not stated) + CN(C)c1ccc(Nc2c3ccc(NC(=O)CCN4CCCC4)cc3nc3cc(NC(=O)CCN4CCCC4)ccc23)cc1, the viability, T/C was 83.2%.

In the case of `COc1ncnc(C2CC2)c1-c1ncc2cnn(Cc3ccc(-c4nc(C(F)(F)F)cn4C(C)C)cc3)c2n1` + CN(C)c1ccc(Nc2c3ccc(NC(=O)CCN4CCCC4)cc3nc3cc(NC(=O)CCN4CCCC4)ccc23)cc1, the viability, T/C was 74.8%.

`CC1COCCN1c1cc(C2(S(C)(=N)=O)CC2)nc(-c2ccnc3[nH]ccc23)n1` (configuration not stated) + Cc1[nH]c2ccc(F)cc2c1-c1nc2c3cccnc3c3ncccc3c2[nH]1: the viability, T/C was 49.8%.

With `COc1ccc([C@@H](O)c2cc(-c3ncnc4cc(N5CCOCC5)ccc34)c(F)cc2Cl)nn1` + Cc1[nH]c2ccc(F)cc2c1-c1nc2c3cccnc3c3ncccc3c2[nH]1, the viability, T/C is 33.6%.

Staying with this test, now noted: second compound 10 µM; first compound 1 µM; stronger effect = lower value.
On to `C=CCn1c(=O)c2cnc(Nc3ccc(N4CCN(C)CC4)cc3)nc2n1-c1cccc(C(C)(C)O)n1` + CN(C)c1ccc(Nc2c3ccc(NC(=O)CCN4CCCC4)cc3nc3cc(NC(=O)CCN4CCCC4)ccc23)cc1, for which the viability, T/C is 78.4%.

As to `CC(C)(O)C1CCC(Nc2ccc3ncc(-c4cccc(C(F)(F)F)c4)n3n2)CC1` (configuration not stated) + CN(C)c1ccc(Nc2c3ccc(NC(=O)CCN4CCCC4)cc3nc3cc(NC(=O)CCN4CCCC4)ccc23)cc1, the viability, T/C is 64.7%.

For `COc1ncnc(C2CC2)c1-c1ncc2cnn(Cc3ccc(-c4nc(C(F)(F)F)cn4C(C)C)cc3)c2n1` + CN(C)c1ccc(Nc2c3ccc(NC(=O)CCN4CCCC4)cc3nc3cc(NC(=O)CCN4CCCC4)ccc23)cc1, the viability, T/C was 66.3%.

Regarding `CC1COCCN1c1cc(C2(S(C)(=N)=O)CC2)nc(-c2ccnc3[nH]ccc23)n1` (configuration not stated) + Cc1[nH]c2ccc(F)cc2c1-c1nc2c3cccnc3c3ncccc3c2[nH]1, the viability, T/C was 29.5%.

For the molecule `COc1ccc([C@@H](O)c2cc(-c3ncnc4cc(N5CCOCC5)ccc34)c(F)cc2Cl)nn1` + Cc1[nH]c2ccc(F)cc2c1-c1nc2c3cccnc3c3ncccc3c2[nH]1, the viability, T/C was 26.3%.

The same test, now with this note: second compound 10 µM; first compound 3.16 µM; stronger effect = lower value.
On to `C=CCn1c(=O)c2cnc(Nc3ccc(N4CCN(C)CC4)cc3)nc2n1-c1cccc(C(C)(C)O)n1` + CN(C)c1ccc(Nc2c3ccc(NC(=O)CCN4CCCC4)cc3nc3cc(NC(=O)CCN4CCCC4)ccc23)cc1, for which the viability, T/C is 39.1%.

For `CC(C)(O)C1CCC(Nc2ccc3ncc(-c4cccc(C(F)(F)F)c4)n3n2)CC1` (configuration not stated) + CN(C)c1ccc(Nc2c3ccc(NC(=O)CCN4CCCC4)cc3nc3cc(NC(=O)CCN4CCCC4)ccc23)cc1, the viability, T/C was 18.3%.

For the molecule `COc1ncnc(C2CC2)c1-c1ncc2cnn(Cc3ccc(-c4nc(C(F)(F)F)cn4C(C)C)cc3)c2n1` + CN(C)c1ccc(Nc2c3ccc(NC(=O)CCN4CCCC4)cc3nc3cc(NC(=O)CCN4CCCC4)ccc23)cc1, the viability, T/C is 94.8%.

As to `CC1COCCN1c1cc(C2(S(C)(=N)=O)CC2)nc(-c2ccnc3[nH]ccc23)n1` (configuration not stated) + Cc1[nH]c2ccc(F)cc2c1-c1nc2c3cccnc3c3ncccc3c2[nH]1, the viability, T/C is 18.1%.

For the molecule `COc1ccc([C@@H](O)c2cc(-c3ncnc4cc(N5CCOCC5)ccc34)c(F)cc2Cl)nn1` + Cc1[nH]c2ccc(F)cc2c1-c1nc2c3cccnc3c3ncccc3c2[nH]1, the viability, T/C is 19.6%.

The same test, now with this note: second compound 10 µM; first compound 10 µM; stronger effect = lower value.
For the molecule `C=CCn1c(=O)c2cnc(Nc3ccc(N4CCN(C)CC4)cc3)nc2n1-c1cccc(C(C)(C)O)n1` + CN(C)c1ccc(Nc2c3ccc(NC(=O)CCN4CCCC4)cc3nc3cc(NC(=O)CCN4CCCC4)ccc23)cc1, the viability, T/C is 15.3%.

In the case of `CC(C)(O)C1CCC(Nc2ccc3ncc(-c4cccc(C(F)(F)F)c4)n3n2)CC1` (configuration not stated) + CN(C)c1ccc(Nc2c3ccc(NC(=O)CCN4CCCC4)cc3nc3cc(NC(=O)CCN4CCCC4)ccc23)cc1, the viability, T/C was 19.1%.

Consider `COc1ncnc(C2CC2)c1-c1ncc2cnn(Cc3ccc(-c4nc(C(F)(F)F)cn4C(C)C)cc3)c2n1` + CN(C)c1ccc(Nc2c3ccc(NC(=O)CCN4CCCC4)cc3nc3cc(NC(=O)CCN4CCCC4)ccc23)cc1, for which the viability, T/C was 82.3%.

For the molecule `CC1COCCN1c1cc(C2(S(C)(=N)=O)CC2)nc(-c2ccnc3[nH]ccc23)n1` (configuration not stated) + Cc1[nH]c2ccc(F)cc2c1-c1nc2c3cccnc3c3ncccc3c2[nH]1, the viability, T/C was 6.17%.

As for `COc1ccc([C@@H](O)c2cc(-c3ncnc4cc(N5CCOCC5)ccc34)c(F)cc2Cl)nn1` + Cc1[nH]c2ccc(F)cc2c1-c1nc2c3cccnc3c3ncccc3c2[nH]1, the viability, T/C was 21.1%.

One may read the viability, T/C as the result in the treated group divided by that in the control group, in per cent.
